Target: T1, human recombinant ALK1 (GST fused to ALK1 intracellular domain [His142-Gln503]) (Homo sapiens, UniProt P37023)
T1 construct: GST fused to ALK1 intracellular domain [His142-Gln503]; made in house
T1 sequence (P37023 142-503): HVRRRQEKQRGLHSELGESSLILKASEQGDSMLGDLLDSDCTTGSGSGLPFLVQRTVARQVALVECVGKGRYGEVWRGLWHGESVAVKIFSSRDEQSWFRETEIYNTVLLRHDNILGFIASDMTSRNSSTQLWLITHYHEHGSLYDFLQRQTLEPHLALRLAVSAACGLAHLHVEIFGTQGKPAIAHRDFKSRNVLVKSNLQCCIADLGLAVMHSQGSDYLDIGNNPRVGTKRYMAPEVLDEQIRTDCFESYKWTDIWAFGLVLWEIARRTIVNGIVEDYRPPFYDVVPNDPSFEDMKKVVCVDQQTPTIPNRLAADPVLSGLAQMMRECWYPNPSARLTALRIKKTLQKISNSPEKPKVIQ
Assay: ALK1-Kinase Flashplate-Assay
Assay type: biochemical
Conditions: 0.5 μM ATP, biotinylated α-casein substrate; read-out: Assay 1 (ALK1-Kinase Flashplate-Assay IC50 class)
Description: Biological Assay 1: ALK1-Kinase Flashplate-Assay
ALK1 phosphorylates serine/threonine residues of the biotinylated substrate bovine α-casein in the presence of [γ-^33P]ATP. Detection of the radiolabeled phosphorylated product is achieved by binding to streptavidine-coated Flashplates. The biotin moieties of biotinylated casein bind with high affinity to the streptavidine. The radiolabeled biotinylated casein produced by the ALK1 kinase reaction is able to generate a […] signal when strepatavidine-mediated binding occurs to the scintillant-containing surface of the Flashplates due to the close proximity of the radiolabel and the scintillant. […] The signals obtained are therefore indicative of the ALK1 kinase activity. Measurement is performed in a Perkin-Elmer TopCount or Perkin-Elmer ViewLux instrument.
Enzyme: Purified human recombinant ALK1 (GST fused to ALK1 intracellular domain [His142-Gln503]) produced in-house, aliquots stored at −80° C.;
Diluted enzyme working solution: 2.5 ng/μl ALK1 (in assay buffer) freshly prepared and chilled on ice until use.
Substrate: biotinylated bovine α-casein. Unbiotinylated casein obtained from Sigma was biotinylated by standard procedures using N-hydroxysuccinimide (NHS) ester of biotin.
Substrate working solution: 0.83 μM ATP, 1.67 μM biotinylated a-casein, 7.4 nCi [γ-^33P]ATP/μl in assay buffer
Assay plates: 384-well plates, small volume, white, Greiner (# 784075)
Flashplates: Streptavidin-coated Flashplates, Perkin Elmer (384-well # SPM410A)
Assay buffer: 50 mM Tris/HCl pH 8.0, 1 mM MnCl2, 1 mM DTT, 0.01% NP40, 0.5× Complete EDTA-free
Stop solution: 33.3 μM ATP, 33.3 mM EDTA, 0.07% Triton X-100 in PBS
Saturating buffer for Flashplates: 100 μM ATP, 0.2% Triton X-100 in PBS
Sealing tape: Greiner (# 676080)
Protocol for small volume 5 μl assay (all steps are performed at 20° C., pipetted with CyBi-Well and Multidrop Micro): • 1. 50 nl or 250 nl compound in 100% DMSO • 2. addition of 3 μl substrate working solution with CyBi-Well pipettor • 3. addition of 2 μl enzyme working solution with Multidrop Micro incubation for 60 min at room temperature • 4. addition of 15 μl Stop solution with CyBi-Well pipettor • 5. transfer of 18 μl assay mixture to Flashplates** with CyBi-Well pipettor incubation for at least 3 h at room temperature or over night at 4° C. to allow binding to the streptavidine-coated Flashplates • 6. washing the Flashplates 3 times with 50 μl PBS without Ca++ and Mg++ • 7. sealing with sealing tape • 8. Measurement in Topcount (60 sec/well) **Saturation of Flashplates: The Flashplates are preincubated for at least 1 hour with 50 μl saturating buffer. Remove 18 μl from the 50 μl and transfer 18 μl of the assay mixture to the Flashplate.
Final concentrations, calculated for 5 μl reaction volume: ALK1 5 ng/well; 1 μM biotinylated α-casein; 0.5 μM ATP; 22 nCi/well [γ-^33P]ATP; 1 mM MnCl2; 1 mM DTT; 50 mM Tris-HCl; pH 8.0; 0.01% NP40; 0.5× Complete EDTA-free; 1% or 5% DMSO.
The data were normalised (enzyme reaction without inhibitor=0% inhibition, enzyme reaction in the presence of 10 mM EDTA=100% inhibition) and IC50 values were calculated by a 4 parameter fit using an in-house software.

| SMILES | IC50 [nM] |
| --- | --- |
| COc1ccc(-c2cnn3ccc(Nc4ccc(O)cc4)nc23)cn1 [Example 147, 4-[3-(6-Methoxy-pyridin-3-yl)-pyrazolo[1,5-a]pyrimidin-5-ylamino]-phenol] | < 1000 |
| OC1CCC(Nc2ccn3ncc(-c4cccnc4)c3n2)CC1 (stereo not drawn) [Example 67, 4-(3-Pyridin-3-yl-pyrazolo[1,5-a]pyrimidin-5-ylamino)-cyclohexanol] | 1000 to 10000 |
| Oc1cccc(-c2cnn3ccc(NCc4cccnc4)nc23)c1 [Example 168, 3-{5-[(Pyridin-3-ylmethyl)-amino]-pyrazolo[1,5-a]pyrimidin-3-yl}-phenol] | < 1000 |
| Cc1ccc(Nc2ccn3ncc(-c4cnn(C)c4)c3n2)cc1NS(C)(=O)=O [Example 210, N-{2-Methyl-5-[3-(1-methyl-1H-pyrazol-4-yl)-pyrazolo[1,5-a]pyrimidin-5-ylamino]-phenyl}-methanesulfonamide] | < 1000 |
| CC(=O)c1cccc(-c2cnn3ccc(Nc4ccc(O)cc4)nc23)c1 [Example 193, 1-{3-[5-(4-Hydroxy-phenylamino)-pyrazolo[1,5-a]pyrimidin-3-yl]-phenyl}-ethanone] | 1000 to 10000 |
| COc1cccc(-c2cnn3ccc(Nc4ccc(NS(=O)(=O)c5ccc(C)cc5)cc4)nc23)c1 [Example 200, N-{4-[3-(3-Methoxy-phenyl)-pyrazolo[1,5-a]pyrimidin-5-ylamino]-phenyl}-4-methyl-benzenesulfonamide] | 1000 to 10000 |
| COc1ccc(-c2cnn3ccc(Nc4ccc(NS(=O)(=O)c5ccc(C)cc5)cc4)nc23)cc1OC [Example 56, N-{4-[3-(3,4-Dimethoxy-phenyl)-pyrazolo[1,5-a]pyrimidin-5-ylamino]-phenyl}-4-methyl-benzenesulfonamide] | < 1000 |
| COc1ccc(Nc2ccn3ncc(-c4cnn(Cc5ccccc5)c4)c3n2)cn1 [Example 199, [3-(1-Benzyl-1H-pyrazol-4-yl)-pyrazolo[1,5-a]pyrimidin-5-yl]-(6-methoxy-pyridin-3-yl)-amine] | 1000 to 10000 |
| O=C(O)CCc1ccc(-c2cnn3ccc(Nc4ccc(O)cc4)nc23)cc1 [Example 83, 3-{4-[5-(4-Hydroxy-phenylamino)-pyrazolo[1,5-a]pyrimidin-3-yl]-phenyl}-propionic acid] | 1000 to 10000 |
| COc1cc(Nc2ccn3ncc(-c4ccncc4)c3n2)cc(OC)c1OC [Example 4, (3-Pyridin-4-yl-pyrazolo[1,5-a]pyrimidin-5-yl)-(3,4,5-trimethoxy-phenyl)-amine] | 1000 to 10000 |
| Cc1ccc(Nc2ccn3ncc(-c4ccc(O)cc4)c3n2)cc1NS(C)(=O)=O [Example 60, N-{5-[3-(4-Hydroxy-phenyl)-pyrazolo[1,5-a]pyrimidin-5-ylamino]-2-methyl-phenyl}-methanesulfonamide] | < 1000 |
| COc1ccc(-c2cnn3ccc(Nc4ccc(C(C)C)cc4)nc23)cc1OC [Example 37, [3-(3,4-Dimethoxy-phenyl)-pyrazolo[1,5-a]pyrimidin-5-yl]-(4-isopropyl-phenyl)-amine] | 1000 to 10000 |
| COc1cc(-c2cnn3ccc(NCCN(C)C)nc23)cc(OC)c1OC [Example 134, N,N-Dimethyl-N-[3-(3,4,5-trimethoxy-phenyl)-pyrazolo[1,5-a]pyrimidin-5-yl]-ethane-1,2-diamine] | 1000 to 10000 |
| Cc1ccc(S(=O)(=O)Nc2ccc(Nc3ccn4ncc(-c5cccnc5)c4n3)cc2)cc1 [Example 52, 4-Methyl-N-[4-(3-pyridin-3-yl-pyrazolo[1,5-a]pyrimidin-5-ylamino)-phenyl]-benzenesulfonamide] | < 1000 |
| NC(=O)c1cccc(-c2cnn3ccc(Nc4ccc(Oc5ccccc5)cc4)nc23)c1 [Example 38, 3-[5-(4-Phenoxy-phenylamino)-pyrazolo[1,5-a]pyrimidin-3-yl]-benzamide] | 1000 to 10000 |
| OCCNc1ccn2ncc(-c3cccc(OC(F)(F)F)c3)c2n1 [Example 122, 2-[3-(3-Trifluoromethoxy-phenyl)-pyrazolo[1,5-a]pyrimidin-5-ylamino]-ethanol] | 1000 to 10000 |
| COc1ccc(Nc2ccn3ncc(-c4cccc(C(=O)NCCO)c4)c3n2)cn1 [Example 92, N-(2-Hydroxy-ethyl)-3-[5-(6-methoxy-pyridin-3-ylamino)-pyrazolo[1,5-a]pyrimidin-3-yl]-benzamide] | 1000 to 10000 |
| CC(=O)Nc1cccc(-c2cnn3ccc(Nc4ccc5[nH]ccc5c4)nc23)c1 [Example 19, N-{3-[5-(1H-Indol-5-ylamino)-pyrazolo[1,5-a]pyrimidin-3-yl]-phenyl}-acetamide] | < 1000 |
| OCCNc1ccn2ncc(-c3ccc(Cl)cc3)c2n1 [Example 121, 2-[3-(4-Chloro-phenyl)-pyrazolo[1,5-a]pyrimidin-5-ylamino]-ethanol] | 1000 to 10000 |
| Oc1cccc(-c2cnn3ccc(NC4CCC(O)CC4)nc23)c1 (stereo not drawn) [Example 156, 3-[5-(4-Hydroxy-cyclohexylamino)-pyrazolo[1,5-a]pyrimidin-3-yl]-phenol] | < 1000 |

The next lines start with the values.

| IC50 [nM] | SMILES |
| --- | --- |
| < 1000 | OCc1cccc(-c2cnn3ccc(Nc4ccccc4)nc23)c1 [Example 272, [3-(5-Phenylamino-pyrazolo[1,5-a]pyrimidin-3-yl)-phenyl]-methanol] |
| 1000 to 10000 | Oc1ccc(-c2cnn3ccc(NCc4cccnc4)nc23)cc1 [Example 293, 4-{5-[(Pyridin-3-ylmethyl)-amino]-pyrazolo[1,5-a]pyrimidin-3-yl}-phenol] |
| 1000 to 10000 | c1ccc(-c2cnn3ccc(NCc4cccnc4)nc23)cc1 [Example 376, (3-Phenyl-pyrazolo[1,5-a]pyrimidin-5-yl)-pyridin-3-ylmethyl-amine] |
| 1000 to 10000 | Cn1cc(-c2cnn3ccc(NC4CCC(O)CC4)nc23)cn1 (stereo not drawn) [Example 221, 4-[3-(1-Methyl-1H-pyrazol-4-yl)-pyrazolo[1,5-a]pyrimidin-5-ylamino]-cyclohexanol] |
| 1000 to 10000 | CC(=O)c1cccc(-c2cnn3ccc(NCc4cccnc4)nc23)c1 [Example 227, 1-(3-{5-[(Pyridin-3-ylmethyl)-amino]-pyrazolo[1,5-a]pyrimidin-3-yl}-phenyl)-ethanone] |
| 1000 to 10000 | c1ccc(Oc2ccc(Nc3ccn4ncc(-c5ccncc5)c4n3)cc2)cc1 [Example 468, (4-Phenoxy-phenyl)-(3-pyridin-4-yl-pyrazolo[1,5-a]pyrimidin-5-yl)-amine] |
| 1000 to 10000 | OCc1cccc(-c2cnn3ccc(Nc4cccc(Cl)c4)nc23)c1 [Example 312, {3-[5-(3-Chloro-phenylamino)-pyrazolo[1,5-a]pyrimidin-3-yl]-phenyl}-methanol] |
| 1000 to 10000 | CC(C)c1ccc(Nc2ccn3ncc(-c4cccc(CO)c4)c3n2)cc1 [Example 275, {3-[5-(4-Isopropyl-phenylamino)-pyrazolo[1,5-a]pyrimidin-3-yl]-phenyl}-methanol] |
| 1000 to 10000 | NC(=O)c1cccc(-c2cnn3ccc(NCc4ccncc4)nc23)c1 [Example 213, 3-{5-[(Pyridin-4-ylmethyl)-amino]-pyrazolo[1,5-a]pyrimidin-3-yl}-benzamide] |
| < 1000 | COc1cc(-c2cnn3ccc(NC4CCC(O)CC4)nc23)cc(OC)c1OC (stereo not drawn) [Example 474, 4-[3-(3,4,5-Trimethoxy-phenyl)-pyrazolo[1,5-a]pyrimidin-5-ylamino]-cyclohexanol] |

From patent US20080039455A1, “PYRAZOLOPYRIMIDINES AND SALTS THEREOF, PHARMACEUTICAL COMPOSITIONS COMPRISING SAME, METHODS OF PREPARING SAME AND USES OF SAME” (priority 2006, published 2008)
